Data taken from ChEMBL document CHEMBL1201862, “PubChem BioAssay data set” (2004).
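Results reflect a 48-hour exposure of cells in 96-well plates to compound at five concentrations. At the GI50, growth is halved.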 Active and inactive are the calls of the source. Rule as the data show it: active = GI50 up to about 1.1 µM and inactive = higher. Where a SMILES comes first, the peptide text is derived from it. [ ]: non-standard residue; d: D form. 2Nal = N[CH](Cc1ccc2ccccc2c1)C(=O)O

Tests used:
Assay in all cases: growth of human tumour cells (NCI), 48 h
SNB-78 = system: SNB-78
LXFL 529 = system: LXFL 529
DLD-1 = system: DLD-1
DMS-114 = system: DMS-114
RXF 631 = system: RXF 631
DMS-273 = system: DMS-273
M19-MEL = system: M19-MEL
XF498 = system: XF498
HOP-18 = system: HOP-18

Row | Structure (SMILES) | GI50 (SNB-78) | GI50 (LXFL 529) | GI50 (DLD-1) | GI50 (DMS-114) | GI50 (RXF 631) | GI50 (DMS-273) | GI50 (M19-MEL) | GI50 (XF498) | GI50 (HOP-18)
1 | CCOC(=O)C(=O)CC1=Nc2ccccc2SC(c2cccc(C)c2)C1 (stereo not drawn) | 16 µM (inactive) | 18.1 µM (inactive) | 17.8 µM (inactive) | 14.9 µM (inactive) | 16 µM (inactive) | 19.6 µM (inactive) | 18.8 µM (inactive) | – | –
2 | Cc1ccc(S(=O)(=O)c2c(N)c3nc4ccccc4n3c3nc4ccccc4nc23)cc1 | – | > 100 µM (inactive) | > 100 µM (inactive) | > 100 µM (inactive) | > 100 µM (inactive) | > 100 µM (inactive) | > 100 µM (inactive) | – | –
3 | O=C(O)c1ccc([C@@H]2C(=O)N(O)[C@@H]3C=CC[C@@H]32)cc1 | > 100 µM (inactive) | > 100 µM (inactive) | > 100 µM (inactive) | > 100 µM (inactive) | > 100 µM (inactive) | > 100 µM (inactive) | > 100 µM (inactive) | > 100 µM (inactive) | –
4 | COc1cc(C2C(C(=O)Nc3ccc(Cl)c(Cl)c3)=C(C)NC(C)=C2C(=O)Nc2ccc(Cl)c(Cl)c2)ccc1O | 14.9 µM (inactive) | 9.27 µM (inactive) | 10.6 µM (inactive) | 6.49 µM (inactive) | – | – | 14.5 µM (inactive) | 17.4 µM (inactive) | –
5 | COc1cc2c(cc1OC)C(C#N)N(C(=O)c1ccccc1)C=C2OC(=O)c1ccccc1 (stereo not drawn) | 30 µM (inactive) | 20.6 µM (inactive) | 29.6 µM (inactive) | 31 µM (inactive) | – | 21.7 µM (inactive) | 33.7 µM (inactive) | 26.5 µM (inactive) | 22 µM (inactive)
6 | Cn1cc(NC(=O)c2cc(NC(=O)Nc3cc(C(=O)Nc4cc(C(=O)NCCC(=N)N)n(C)c4)n(C)c3)cn2C)cc1C(=O)NCCC(=N)N | 38.5 µM (inactive) | 56.5 µM (inactive) | > 100 µM (inactive) | 49.3 µM (inactive) | 23.1 µM (inactive) | 13.6 µM (inactive) | 20.4 µM (inactive) | 21 µM (inactive) | 71.4 µM (inactive)
7 | CN1c2ccccc2N(C(=O)c2ccccc2)C(CC(=O)O)c2cccn21 (stereo not drawn) | – | > 100 µM (inactive) | – | > 100 µM (inactive) | > 100 µM (inactive) | > 100 µM (inactive) | > 100 µM (inactive) | > 100 µM (inactive) | > 100 µM (inactive)
8 | COC(=O)/C(C#N)=C1\NN=NN1c1ccc(OC)cc1 | > 100 µM (inactive) | > 100 µM (inactive) | > 100 µM (inactive) | > 100 µM (inactive) | > 100 µM (inactive) | > 100 µM (inactive) | > 100 µM (inactive) | – | > 100 µM (inactive)
9 | COc1ccc2nccc(NCCCN3CCN(CCCNc4ccnc5ccc(OC)cc45)CC3)c2c1 | 0.873 µM (active) | 0.179 µM (active) | 0.843 µM (active) | 0.128 µM (active) | – | 0.418 µM (active) | 0.652 µM (active) | 0.201 µM (active) | –
10 | CC(=O)O[C@]12CCC[C@H]1C1(O)C(O)CCC[C@H]12 (stereo partly drawn) | > 100 µM (inactive) | > 100 µM (inactive) | – | > 100 µM (inactive) | – | > 100 µM (inactive) | > 100 µM (inactive) | > 100 µM (inactive) | > 100 µM (inactive)
11 | COC(CN1C=C(Sc2ccccc2)CC1)OC | 34.3 µM (inactive) | – | 29 µM (inactive) | 23.2 µM (inactive) | – | – | 31.8 µM (inactive) | 22.4 µM (inactive) | 59.3 µM (inactive)
12 | CCc1cccc(C(C)C)c1NC(=O)C(=O)C1C(=O)NC(=O)NC1=O | – | > 100 µM (inactive) | > 100 µM (inactive) | > 100 µM (inactive) | – | – | > 100 µM (inactive) | > 100 µM (inactive) | > 100 µM (inactive)
13 | CCOC(OC1=C(C#N)CCC1)C(C)[Se]c1ccccc1 (stereo not drawn) | 29.8 µM (inactive) | 17.2 µM (inactive) | 30.5 µM (inactive) | 4.06 µM (inactive) | 11.1 µM (inactive) | 14.5 µM (inactive) | 14.8 µM (inactive) | – | 25.4 µM (inactive)
14 | Cc1ccc(-n2c(=S)[nH]c3ccc(Br)cc3c2=O)cc1 | – | > 100 µM (inactive) | 67.9 µM (inactive) | > 100 µM (inactive) | – | – | > 100 µM (inactive) | > 100 µM (inactive) | > 100 µM (inactive)
15 | CC1CC(=O)C(C(O)CC2CC(=O)N(c3ccccc3)C(=O)C2)C(C)C1 (stereo not drawn) | > 100 µM (inactive) | > 100 µM (inactive) | > 100 µM (inactive) | > 100 µM (inactive) | – | > 100 µM (inactive) | > 100 µM (inactive) | – | > 100 µM (inactive)
16 | c1ccc2c(c1)CCC/C2=N\OCC1CO1 (stereo not drawn) | > 100 µM (inactive) | 64.3 µM (inactive) | 73.3 µM (inactive) | – | > 100 µM (inactive) | > 100 µM (inactive) | > 100 µM (inactive) | 37.6 µM (inactive) | 66.2 µM (inactive)
17 | CCCCCCCCOCC(CO)OCCCCCCCC (stereo not drawn) | – | 18.9 µM (inactive) | 18 µM (inactive) | 21.2 µM (inactive) | 17.7 µM (inactive) | 18.7 µM (inactive) | 20 µM (inactive) | – | 11.7 µM (inactive)
18 | O=C(CSc1nc(-c2ccccc2)c(-c2ccccc2)[nH]1)NNC(=S)Nc1ccccc1 | > 100 µM (inactive) | > 100 µM (inactive) | 96.4 µM (inactive) | 57 µM (inactive) | – | 92.7 µM (inactive) | 91.6 µM (inactive) | 61.9 µM (inactive) | –
19 | COC(=O)C(Cc1cc(OC)c(OC)c(OC)c1)c1ccc(OC)cc1 (stereo not drawn) | > 100 µM (inactive) | 54.7 µM (inactive) | > 100 µM (inactive) | 62.4 µM (inactive) | > 100 µM (inactive) | > 100 µM (inactive) | > 100 µM (inactive) | – | > 100 µM (inactive)
20 | CC(NC(=O)C(N)Cc1ccccc1)C(=O)NC(Cc1ccc(O)cc1)C(=O)NC(Cc1c[nH]c2ccccc12)C(=O)NC(CCCCN)C(=O)NC(C(=O)NC(C)C(=O)NC(Cc1ccc2ccccc2c1)C(N)=O)C(C)C (stereo not drawn) (H-FAYWKVA[2Nal]-NH2; configuration not given here) | 44.3 µM (inactive) | – | 31.8 µM (inactive) | 31.7 µM (inactive) | – | 24.6 µM (inactive) | 27 µM (inactive) | 21.4 µM (inactive) | 23.9 µM (inactive)
